# Experimental data from ChEMBL document CHEMBL1129998, “Pharmacological options in the treatment of benign prostatic hyperplasia” (J Med Chem, 1997).
# Columns and labels:
# [1] = target: T1, Alpha-1A adrenergic receptor (Homo sapiens, UniProt P35348); assay: Binding affinity was tested on human Alpha-1A adrenergic receptor
# T1 sequence (P35348 whole entry): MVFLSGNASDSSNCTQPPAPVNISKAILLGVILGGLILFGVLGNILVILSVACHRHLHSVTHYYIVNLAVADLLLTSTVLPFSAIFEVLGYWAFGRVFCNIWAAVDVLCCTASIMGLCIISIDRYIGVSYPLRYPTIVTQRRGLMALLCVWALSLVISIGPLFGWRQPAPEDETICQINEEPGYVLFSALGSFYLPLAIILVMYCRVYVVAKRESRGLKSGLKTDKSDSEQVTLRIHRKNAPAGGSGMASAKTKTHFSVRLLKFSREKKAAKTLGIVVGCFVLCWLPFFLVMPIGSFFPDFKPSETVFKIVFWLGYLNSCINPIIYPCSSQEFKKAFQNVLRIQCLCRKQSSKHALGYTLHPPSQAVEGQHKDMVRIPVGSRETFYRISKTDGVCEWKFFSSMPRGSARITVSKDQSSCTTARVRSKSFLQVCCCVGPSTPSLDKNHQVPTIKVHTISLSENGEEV
# [2] = target: T2, Adrenergic receptor alpha-1 (Homo sapiens, UniProt P35348+P25100+P35368); assay: pA2 for Alpha-1 adrenergic receptor from human prostate.; type: tissue-based, Prostate gland
# T2 sequence (P35348 whole entry): T1 sequence (P35348 whole entry)
# T2 sequence (P25100 whole entry): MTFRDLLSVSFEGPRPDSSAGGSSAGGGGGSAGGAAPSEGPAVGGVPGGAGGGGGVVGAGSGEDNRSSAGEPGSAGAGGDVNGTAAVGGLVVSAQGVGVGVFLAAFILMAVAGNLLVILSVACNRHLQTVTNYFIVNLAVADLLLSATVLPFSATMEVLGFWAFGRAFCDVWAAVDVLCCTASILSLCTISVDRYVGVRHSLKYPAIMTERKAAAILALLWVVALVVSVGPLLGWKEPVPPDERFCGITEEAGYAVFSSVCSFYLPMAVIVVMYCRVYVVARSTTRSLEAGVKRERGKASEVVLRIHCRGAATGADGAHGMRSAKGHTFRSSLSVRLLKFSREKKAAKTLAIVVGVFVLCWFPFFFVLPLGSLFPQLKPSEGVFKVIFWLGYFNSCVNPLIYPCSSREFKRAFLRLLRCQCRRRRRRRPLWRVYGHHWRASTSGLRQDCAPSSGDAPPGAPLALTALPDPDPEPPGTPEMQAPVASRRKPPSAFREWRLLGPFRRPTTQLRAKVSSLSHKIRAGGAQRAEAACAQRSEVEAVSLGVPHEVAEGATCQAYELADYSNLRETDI
# T2 sequence (P35368 whole entry): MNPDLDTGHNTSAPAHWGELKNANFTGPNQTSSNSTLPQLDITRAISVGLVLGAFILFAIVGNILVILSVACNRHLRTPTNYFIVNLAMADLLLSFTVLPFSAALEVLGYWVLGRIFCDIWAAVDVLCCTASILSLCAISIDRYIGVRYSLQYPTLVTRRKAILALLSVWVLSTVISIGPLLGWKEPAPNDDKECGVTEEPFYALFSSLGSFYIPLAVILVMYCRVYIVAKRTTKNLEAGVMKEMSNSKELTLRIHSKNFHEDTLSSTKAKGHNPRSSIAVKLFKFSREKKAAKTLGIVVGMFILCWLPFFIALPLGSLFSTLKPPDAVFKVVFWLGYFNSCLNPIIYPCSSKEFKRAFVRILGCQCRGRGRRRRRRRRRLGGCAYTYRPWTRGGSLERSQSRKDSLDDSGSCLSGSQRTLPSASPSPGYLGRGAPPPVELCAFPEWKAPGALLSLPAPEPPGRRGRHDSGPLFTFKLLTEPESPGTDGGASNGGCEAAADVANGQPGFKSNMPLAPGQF
# [3] = target: T3, Alpha-1B adrenergic receptor (Homo sapiens, UniProt P35368); assay: Binding affinity was tested on human Alpha-1B adrenergic receptor
# T3 sequence (P35368 whole entry): T2 sequence (P35368 whole entry)
# [4] = target: T4, Alpha-1D adrenergic receptor (Homo sapiens, UniProt P25100); assay: Binding affinity was tested on human Alpha-1D adrenergic receptor
# T4 sequence (P25100 whole entry): T2 sequence (P25100 whole entry)
# [5] = system: Canis familiaris; assay: 50% reduction in intraurethral pressure (IUP) in response to hypogastric nerve stimulation or agonist (phenylephrine or norepinephrine) administration in anesthetized dog; type: functional; settings: Canis lupus familiaris; read-out: ID50 (the source's name)
# [6] = system: Canis familiaris; assay: 50% reduction in agonist induced pressor response in anesthetized dog; type: functional; settings: Canis lupus familiaris; read-out: ID50 (the source's name)
# [7] = Apparent binding affinity on human 5-alpha reductase isozyme
# [8] = target: T5, Steroid 5-alpha-reductase (Rattus norvegicus, UniProt P24008+P31214); assay: Inhibition of rat 5-alpha reductase isozyme.; type: protein assay
# T5 sequence (P24008 whole entry): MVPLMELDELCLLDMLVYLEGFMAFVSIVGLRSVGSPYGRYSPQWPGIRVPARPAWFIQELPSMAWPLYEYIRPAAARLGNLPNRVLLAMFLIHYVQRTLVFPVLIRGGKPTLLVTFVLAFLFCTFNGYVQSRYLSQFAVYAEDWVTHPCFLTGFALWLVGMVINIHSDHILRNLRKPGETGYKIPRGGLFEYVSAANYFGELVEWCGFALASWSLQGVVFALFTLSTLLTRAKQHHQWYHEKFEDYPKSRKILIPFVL
# T5 sequence (P31214 whole entry): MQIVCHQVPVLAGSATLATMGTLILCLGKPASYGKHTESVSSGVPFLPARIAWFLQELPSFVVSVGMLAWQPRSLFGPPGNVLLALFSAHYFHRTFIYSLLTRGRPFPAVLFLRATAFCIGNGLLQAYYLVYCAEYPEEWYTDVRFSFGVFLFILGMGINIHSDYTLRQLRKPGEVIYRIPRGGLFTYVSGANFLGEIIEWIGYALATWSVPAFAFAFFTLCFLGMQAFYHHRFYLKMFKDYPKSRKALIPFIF
# [9] = Inhibitory concentration on human 5-alpha reductase isozyme
# [10] = target: T6, Alpha-1B adrenergic receptor (Rattus norvegicus, UniProt P15823); assay: Binding affinity was tested on CEC-pretreated rat liver Alpha-1B adrenergic receptor
# T6 sequence (P15823 whole entry): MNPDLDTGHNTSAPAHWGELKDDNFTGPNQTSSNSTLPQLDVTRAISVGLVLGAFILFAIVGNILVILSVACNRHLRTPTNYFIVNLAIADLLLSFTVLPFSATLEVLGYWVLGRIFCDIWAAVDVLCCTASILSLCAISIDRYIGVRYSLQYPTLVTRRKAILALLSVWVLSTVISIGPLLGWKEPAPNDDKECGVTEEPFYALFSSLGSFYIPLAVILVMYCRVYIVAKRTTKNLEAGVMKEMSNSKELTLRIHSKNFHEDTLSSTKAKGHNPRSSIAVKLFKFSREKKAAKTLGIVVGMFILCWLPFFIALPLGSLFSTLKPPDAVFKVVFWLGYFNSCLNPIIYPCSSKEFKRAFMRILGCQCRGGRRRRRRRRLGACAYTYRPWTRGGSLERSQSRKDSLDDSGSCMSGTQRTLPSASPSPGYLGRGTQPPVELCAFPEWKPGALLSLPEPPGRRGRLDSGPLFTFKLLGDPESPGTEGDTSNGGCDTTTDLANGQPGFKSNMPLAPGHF
# [11] = target: T7, Alpha-1A adrenergic receptor (Rattus norvegicus, UniProt P43140); assay: Binding affinity was tested on CEC-pretreated rat hippocampus Alpha-1A adrenergic receptor; type: tissue-based
# T7 sequence (P43140 whole entry): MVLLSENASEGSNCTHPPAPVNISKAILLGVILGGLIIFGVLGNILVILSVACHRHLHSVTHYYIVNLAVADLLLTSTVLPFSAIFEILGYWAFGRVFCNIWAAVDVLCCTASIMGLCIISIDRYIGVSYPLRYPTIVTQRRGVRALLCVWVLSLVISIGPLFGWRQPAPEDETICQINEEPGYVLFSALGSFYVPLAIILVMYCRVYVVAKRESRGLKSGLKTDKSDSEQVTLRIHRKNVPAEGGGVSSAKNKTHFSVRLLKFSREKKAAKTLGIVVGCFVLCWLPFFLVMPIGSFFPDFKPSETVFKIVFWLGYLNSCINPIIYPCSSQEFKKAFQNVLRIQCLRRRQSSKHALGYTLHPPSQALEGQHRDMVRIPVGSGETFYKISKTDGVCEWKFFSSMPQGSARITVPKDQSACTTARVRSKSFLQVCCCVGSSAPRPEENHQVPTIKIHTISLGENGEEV
# [12] = target: T8, 3-oxo-5-alpha-steroid 4-dehydrogenase 1 (Homo sapiens, UniProt P18405); assay: Inhibitory concentration was tested on human 5-alpha reductase 1 isozyme
# T8 sequence (P18405 whole entry): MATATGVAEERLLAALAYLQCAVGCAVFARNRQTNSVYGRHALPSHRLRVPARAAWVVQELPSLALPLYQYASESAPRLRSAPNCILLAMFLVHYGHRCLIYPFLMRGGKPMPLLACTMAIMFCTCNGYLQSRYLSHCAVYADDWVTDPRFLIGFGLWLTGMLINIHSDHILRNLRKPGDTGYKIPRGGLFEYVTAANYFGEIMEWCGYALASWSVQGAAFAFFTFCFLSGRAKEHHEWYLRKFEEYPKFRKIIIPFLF
# [13] = target: T9, 3-oxo-5-alpha-steroid 4-dehydrogenase 2 (Homo sapiens, UniProt P31213); assay: Inhibition of human 5-alpha reductase 2 isozyme.
# T9 sequence (P31213 whole entry): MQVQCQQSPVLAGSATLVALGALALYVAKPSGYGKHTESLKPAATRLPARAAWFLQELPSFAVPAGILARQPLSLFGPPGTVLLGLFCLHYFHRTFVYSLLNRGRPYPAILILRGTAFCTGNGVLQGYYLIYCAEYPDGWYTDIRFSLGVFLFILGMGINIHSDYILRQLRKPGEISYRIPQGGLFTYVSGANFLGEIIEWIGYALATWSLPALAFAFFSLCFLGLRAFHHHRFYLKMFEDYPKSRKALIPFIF
Structure (SMILES),Ki [3] [µM],Ki [4] [µM],IC50 [8] [µM],IC50 [9] [µM],further results
O=C(NC1CCN(CCc2c[nH]c3ccccc23)CC1)c1ccccc1 [INDORAMIN],0.0398,0.158,–,–,Ki [1]: 0.00398 µM; pA2 [2]: 8.7
C=Cc1sc2ccc(Cl)c3c2c1CN(C)CC3,0.02,0.00316,–,–,pA2 [2]: 7.5
COc1cc2nc(N3CCN(C(=O)c4ccco4)CC3)nc(N)c2cc1OC [PRAZOSIN],–,–,–,–,ED50 [5]: 0.012 mg/kg; ED50 [6]: 0.011 mg/kg
CC(C)(Cc1c[nH]c2ccc(Cl)cc12)NCCOc1ccccc1OCC1CC1,0.0158,0.0158,–,–,Ki [1]: 0.000631 µM; pA2 [2]: 7.3
CC(C)N(C(=O)[C@H]1CCC2C3CC=C4C=C(C(=O)O)CC[C@]4(C)C3CC[C@@]21C)C(C)C (some centres undefined),–,–,–,–,Ki [7]: 0.007 µM
CCOc1ccccc1OCCN[C@H](C)Cc1ccc(OC)c(S(N)(=O)=O)c1 (stereo in doubt; form 1) [TAMSULOSIN],0.00126,0.000158,–,–,ED50 [5]: 0.002 mg/kg; ED50 [6]: 0.001 mg/kg
CC(C)N(C(=O)C1=CCC2C3CCC4=CC(C(=O)O)=CC[C@]4(C)C3CC[C@]12C)C(C)C (some centres undefined),–,–,0.047,0.007,–
CC(C)N(C(=O)[C@H]1CCC2C3CCC4C=C([N+](=O)[O-])CC[C@]4(C)C3CC[C@@]21C)C(C)C (some centres undefined),–,–,–,–,Ki [7]: 0.05 µM
CC(C)N(C(=O)[C@H]1CC[C@H]2[C@@H]3CC[C@H]4C(F)=C(C(=O)O)CC[C@]4(C)[C@H]3CC[C@]12C)C(C)C,–,–,0.035,0.026,–
CC(C)N(C(=O)[C@H]1CCC2C3C=CC4=CC(C(=O)O)=CC[C@]4(C)C3CC[C@@]21C)C(C)C (some centres undefined),–,–,0.3,0.012,–
Cc1ccc(Cl)cc1N1CCN(CCCNC(=O)c2cccc3c(=O)c(C)c(-c4ccccc4)oc23)CC1,–,–,–,–,IC50 [10]: 0.029 µM; IC50 [11]: 0.001 µM
COc1cc2nc(N3CCN(C(=O)C4CCCO4)CC3)nc(N)c2cc1OC (centres undefined) [TERAZOSIN],–,0.00398,–,–,ED50 [5]: 0.101 mg/kg; ED50 [6]: 0.085 mg/kg
CC1=C2C=C(C(=O)O)CC[C@]2(C)C2CC[C@@]3(C)C(CC[C@@H]3C(=O)c3cccc4ccccc34)C2C1 (some centres undefined),–,–,0.2,0.17,–
CC1=C(C(=O)O)CC[C@@]2(C)C1=CCC1C2CC[C@@]2(C)C1CC[C@@H]2C(=O)N(C(C)C)C(C)C (some centres undefined),–,–,0.07,0.035,–
O=C(CCCN1CCC(NC(=O)c2ccccc2)CC1)c1ccccc1,0.2,0.794,–,–,Ki [1]: 0.0158 µM; pA2 [2]: 7.9
CC(C)N(C(=O)[C@H]1CCC2C3CC=C4C=C([N+](=O)[O-])CC[C@]4(C)C3CC[C@@]21C)C(C)C (some centres undefined),–,–,–,–,Ki [7]: 0.59 µM
CC(C)(C)NC(=O)[C@H]1CC[C@H]2[C@@H]3CC=C4C=C(C(=O)O)CC[C@]4(C)[C@H]3CC[C@]12C [EPRISTERIDE],–,–,0.05,0.018,–
"CC(C)N(C(=O)[C@H]1CCC2C3CCC4C=C([N+](=O)[O-])C=CC4(C)C3CC[C@@]21C)C(C)C (single isomer, unassigned)",–,–,–,–,Ki [7]: > 5 µM
CC(C)Cc1ccc([C@@H](C)Oc2ccc(C(=O)c3cn(CCCC(=O)O)c4ccccc34)cc2)cc1,–,–,0.03,–,IC50 [12]: 0.574 µM; IC50 [13]: 0.069 µM
COc1ccccc1N1CCN(CCCNc2c(C)c(=O)n(C)c(=O)n2C)CC1,0.0398,0.01,–,–,Ki [1]: 0.000631 µM; pA2 [2]: 8.2
